Measurements as given in ChEMBL document CHEMBL1139986, “Synthesis and biodistribution of 8-iodo-11-(4-methylpiperazino)-5H-dibenzo[b,e][1,4]-diazepine: Iozapine” (Bioorg Med Chem Lett, 2007).

Assays:
Spleen [1] = test: Biodistribution in BALB/c mouse spleen at 7 to 8 KBq, iv after 120 mins; assay type: ADME, organism-based; conditions: in vivo, 2 h
Pancreas [2] = test: Biodistribution in BALB/c mouse pancreas at 7 to 8 KBq, iv after 5 mins; assay type: ADME, organism-based; conditions: in vivo
Blood [3] = test: Biodistribution in BALB/c mouse blood at 7 to 8 KBq, iv after 5 mins; assay type: ADME, organism-based; conditions: in vivo
Blood [4] = test: Biodistribution in BALB/c mouse blood at 7 to 8 KBq, iv after 15 mins; assay type: ADME, organism-based; conditions: in vivo, 0.25 h
Blood [5] = test: Biodistribution in BALB/c mouse blood at 7 to 8 KBq, iv after 60 mins; assay type: ADME, organism-based; conditions: in vivo, 1 h
Spleen [6] = test: Biodistribution in BALB/c mouse spleen at 7 to 8 KBq, iv after 5 mins; assay type: ADME, organism-based; conditions: in vivo
Spleen [7] = test: Biodistribution in BALB/c mouse spleen at 7 to 8 KBq, iv after 60 mins; assay type: ADME, organism-based; conditions: in vivo, 1 h
Pancreas [8] = test: Biodistribution in BALB/c mouse pancreas at 7 to 8 KBq, iv after 60 mins; assay type: ADME, organism-based; conditions: in vivo, 1 h
Pancreas [9] = test: Biodistribution in BALB/c mouse pancreas at 7 to 8 KBq, iv after 120 mins; assay type: ADME, organism-based; conditions: in vivo, 2 h
Stomach [10] = test: Biodistribution in BALB/c mouse stomach at 7 to 8 KBq, iv after 5 mins; assay type: ADME, organism-based; conditions: in vivo
Stomach [11] = test: Biodistribution in BALB/c mouse stomach at 7 to 8 KBq, iv after 15 mins; assay type: ADME, organism-based; conditions: in vivo, 0.25 h
Stomach [12] = test: Biodistribution in BALB/c mouse stomach at 7 to 8 KBq, iv after 60 mins; assay type: ADME, organism-based; conditions: in vivo, 1 h
Intestine [13] = test: Biodistribution in BALB/c mouse intestine at 7 to 8 KBq, iv after 5 mins; assay type: ADME, organism-based; conditions: in vivo
Intestine [14] = test: Biodistribution in BALB/c mouse intestine at 7 to 8 KBq, iv after 15 mins; assay type: ADME, organism-based; conditions: in vivo, 0.25 h
Intestine [15] = test: Biodistribution in BALB/c mouse intestine at 7 to 8 KBq, iv after 60 mins; assay type: ADME, organism-based; conditions: in vivo, 1 h
Liver [16] = test: Biodistribution in BALB/c mouse liver at 7 to 8 KBq, iv after 15 mins; assay type: ADME, organism-based; conditions: in vivo, 0.25 h
Liver [17] = test: Biodistribution in BALB/c mouse liver at 7 to 8 KBq, iv after 60 mins; assay type: ADME, organism-based; conditions: in vivo, 1 h
Kidney [18] = test: Biodistribution in BALB/c mouse kidney at 7 to 8 KBq, iv after 5 mins; assay type: ADME, organism-based; conditions: in vivo
Kidney [19] = test: Biodistribution in BALB/c mouse kidney at 7 to 8 KBq, iv after 15 mins; assay type: ADME, organism-based; conditions: in vivo, 0.25 h
Kidney [20] = test: Biodistribution in BALB/c mouse kidney at 7 to 8 KBq, iv after 60 mins; assay type: ADME, organism-based; conditions: in vivo, 1 h
Lung [21] = test: Biodistribution in BALB/c mouse lung at 7 to 8 KBq, iv after 5 mins; assay type: ADME, organism-based; conditions: in vivo
Lung [22] = test: Biodistribution in BALB/c mouse lung at 7 to 8 KBq, iv after 15 mins; assay type: ADME, organism-based; conditions: in vivo, 0.25 h
Lung [23] = test: Biodistribution in BALB/c mouse lung at 7 to 8 KBq, iv after 60 mins; assay type: ADME, organism-based; conditions: in vivo, 1 h
Lung [24] = test: Biodistribution in BALB/c mouse lung at 7 to 8 KBq, iv after 120 mins; assay type: ADME, organism-based; conditions: in vivo, 2 h
Heart [25] = test: Biodistribution in BALB/c mouse heart at 7 to 8 KBq, iv after 5 mins; assay type: ADME, organism-based; conditions: in vivo
Heart [26] = test: Biodistribution in BALB/c mouse heart at 7 to 8 KBq, iv after 15 mins; assay type: ADME, organism-based; conditions: in vivo, 0.25 h
Heart [27] = test: Biodistribution in BALB/c mouse heart at 7 to 8 KBq, iv after 60 mins; assay type: ADME, organism-based; conditions: in vivo, 1 h
Thyroid gland [28] = test: Biodistribution in BALB/c mouse thyroid at 7 to 8 KBq, iv after 15 mins; assay type: ADME, organism-based; conditions: in vivo, 0.25 h
Thyroid gland [29] = test: Biodistribution in BALB/c mouse thyroid at 7 to 8 KBq, iv after 120 mins; assay type: ADME, organism-based; conditions: in vivo, 2 h
Brain [30] = test: Biodistribution in BALB/c mouse brain at 7 to 8 KBq, iv after 5 mins; assay type: ADME, organism-based; conditions: in vivo
Brain [31] = test: Biodistribution in BALB/c mouse brain at 7 to 8 KBq, iv after 15 mins; assay type: ADME, organism-based; conditions: in vivo, 0.25 h
Brain [32] = test: Biodistribution in BALB/c mouse brain at 7 to 8 KBq, iv after 60 mins; assay type: ADME, organism-based; conditions: in vivo, 1 h
Mus musculus [33] = test: Biodistribution in BALB/c mouse upper body at 7 to 8 KBq, iv after 5 mins; assay type: ADME, organism-based; conditions: in vivo
Mus musculus [34] = test: Biodistribution in BALB/c mouse upper body at 7 to 8 KBq, iv after 60 mins; assay type: ADME, organism-based; conditions: in vivo, 1 h
Mus musculus [35] = test: Biodistribution in BALB/c mouse upper body at 7 to 8 KBq, iv after 120 mins; assay type: ADME, organism-based; conditions: in vivo, 2 h
Mus musculus [36] = test: Biodistribution in BALB/c mouse lower body at 7 to 8 KBq, iv after 5 mins; assay type: ADME, organism-based; conditions: in vivo
Mus musculus [37] = test: Biodistribution in BALB/c mouse lower body at 7 to 8 KBq, iv after 15 mins; assay type: ADME, organism-based; conditions: in vivo, 0.25 h
Mus musculus [38] = test: Biodistribution in BALB/c mouse lower body at 7 to 8 KBq, iv after 120 mins; assay type: ADME, organism-based; conditions: in vivo, 2 h
Cortex [39] = test: Biodistribution in BALB/c mouse cortex at 7 to 8 KBq, iv after 15 mins; assay type: ADME, organism-based; conditions: in vivo, 0.25 h
Cortex [40] = test: Biodistribution in BALB/c mouse cortex at 7 to 8 KBq, iv after 60 mins; assay type: ADME, organism-based; conditions: in vivo, 1 h
Cortex [41] = test: Biodistribution in BALB/c mouse cortex at 7 to 8 KBq, iv after 120 mins; assay type: ADME, organism-based; conditions: in vivo, 2 h
Striatum [42] = test: Biodistribution in BALB/c mouse striatum at 7 to 8 KBq, iv after 15 mins; assay type: ADME, organism-based; conditions: in vivo, 0.25 h
Striatum [43] = test: Biodistribution in BALB/c mouse striatum at 7 to 8 KBq, iv after 60 mins; assay type: ADME, organism-based; conditions: in vivo, 1 h
Striatum [44] = test: Biodistribution in BALB/c mouse striatum at 7 to 8 KBq, iv after 120 mins; assay type: ADME, organism-based; conditions: in vivo, 2 h
Hippocampus [45] = test: Biodistribution in BALB/c mouse hippocampus at 7 to 8 KBq, iv after 5 mins; assay type: ADME, organism-based; conditions: in vivo
Hippocampus [46] = test: Biodistribution in BALB/c mouse hippocampus at 7 to 8 KBq, iv after 15 mins; assay type: ADME, organism-based; conditions: in vivo, 0.25 h
Hippocampus [47] = test: Biodistribution in BALB/c mouse hippocampus at 7 to 8 KBq, iv after 60 mins; assay type: ADME, organism-based; conditions: in vivo, 1 h
Hippocampus [48] = test: Biodistribution in BALB/c mouse hippocampus at 7 to 8 KBq, iv after 120 mins; assay type: ADME, organism-based; conditions: in vivo, 2 h
Thalamus [49] = test: Biodistribution in BALB/c mouse thalamus at 7 to 8 KBq, iv after 15 mins; assay type: ADME, organism-based; conditions: in vivo, 0.25 h
Thalamus [50] = test: Biodistribution in BALB/c mouse thalamus at 7 to 8 KBq, iv after 120 mins; assay type: ADME, organism-based; conditions: in vivo, 2 h
Cerebellum [51] = test: Biodistribution in BALB/c mouse cerebellum at 7 to 8 KBq, iv after 15 mins; assay type: ADME, organism-based; conditions: in vivo, 0.25 h
Cerebellum [52] = test: Biodistribution in BALB/c mouse cerebellum at 7 to 8 KBq, iv after 60 mins; assay type: ADME, organism-based; conditions: in vivo, 1 h
Medulla [53] = test: Biodistribution in BALB/c mouse medulla at 7 to 8 KBq, iv after 5 mins; assay type: ADME, organism-based, Medulla of organ; conditions: in vivo
Medulla [54] = test: Biodistribution in BALB/c mouse medulla at 7 to 8 KBq, iv after 15 mins; assay type: ADME, organism-based, Medulla of organ; conditions: in vivo, 0.25 h
Medulla [55] = test: Biodistribution in BALB/c mouse medulla at 7 to 8 KBq, iv after 60 mins; assay type: ADME, organism-based, Medulla of organ; conditions: in vivo, 1 h
Medulla [56] = test: Biodistribution in BALB/c mouse medulla at 7 to 8 KBq, iv after 120 mins; assay type: ADME, organism-based, Medulla of organ; conditions: in vivo, 2 h

Q: For `CN1CCN(C2=Nc3cc([125I])ccc3Nc3ccccc32)CC1` [[125I]I-OZAPINE], which Drug uptake (Spleen [1]) is on record?
A: 0.04 %ID

Q: What about the Drug uptake (Pancreas [2]) of the same molecule?
A: 1.41 %ID

Q: What about the Drug uptake (Blood [3]) of the same molecule?
A: 4.17 %ID

Q: What about the Drug uptake (Blood [4]) of the same molecule?
A: 3.31 %ID

Q: What about the Drug uptake (Blood [5]) of the same molecule?
A: 3.49 %ID

Q: And the Drug uptake (Spleen [6])?
A: 0.37 %ID

Q: And the Drug uptake (Spleen [7])?
A: 0.13 %ID

Q: What about the Drug uptake (Pancreas [8]) of the same molecule?
A: 0.34 %ID

Q: And the Drug uptake (Pancreas [9])?
A: 0.16 %ID

Q: And the Drug uptake (Stomach [10])?
A: 1.77 %ID

Q: And the Drug uptake (Stomach [11])?
A: 3.56 %ID

Q: What about the Drug uptake (Stomach [12]) of the same molecule?
A: 7.35 %ID

Q: And the Drug uptake (Intestine [13])?
A: 9.16 %ID

Q: What about the Drug uptake (Intestine [14]) of the same molecule?
A: 17.73 %ID

Q: And the Drug uptake (Intestine [15])?
A: 35.19 %ID

Q: And the Drug uptake (Liver [16])?
A: 10.38 %ID

Q: What about the Drug uptake (Liver [17]) of the same molecule?
A: 12.03 %ID

Q: What about the Drug uptake (Kidney [18]) of the same molecule?
A: 5.42 %ID

Q: What about the Drug uptake (Kidney [19]) of the same molecule?
A: 4.41 %ID

Q: And the Drug uptake (Kidney [20])?
A: 2.15 %ID

Q: And the Drug uptake (Lung [21])?
A: 4.01 %ID

Q: What about the Drug uptake (Lung [22]) of the same molecule?
A: 1.6 %ID

Q: What about the Drug uptake (Lung [23]) of the same molecule?
A: 0.5 %ID

Q: What about the Drug uptake (Lung [24]) of the same molecule?
A: 0.17 %ID

Q: And the Drug uptake (Heart [25])?
A: 0.6 %ID

Q: What about the Drug uptake (Heart [26]) of the same molecule?
A: 0.28 %ID

Q: What about the Drug uptake (Heart [27]) of the same molecule?
A: 0.13 %ID

Q: What about the Drug uptake (Thyroid gland [28]) of the same molecule?
A: 0.13 %ID

Q: What about the Drug uptake (Thyroid gland [29]) of the same molecule?
A: 1.3 %ID

Q: And the Drug uptake (Brain [30])?
A: 3.49 %ID

Q: And the Drug uptake (Brain [31])?
A: 2.79 %ID

Q: What about the Drug uptake (Brain [32]) of the same molecule?
A: 0.8 %ID

Q: What about the Drug uptake (Mus musculus [33]) of the same molecule?
A: 23.3 %ID

Q: And the Drug uptake (Mus musculus [34])?
A: 11.54 %ID

Q: What about the Drug uptake (Mus musculus [35]) of the same molecule?
A: 5.72 %ID

Q: What about the Drug uptake (Mus musculus [36]) of the same molecule?
A: 18.94 %ID

Q: And the Drug uptake (Mus musculus [37])?
A: 15.02 %ID

Q: And the Drug uptake (Mus musculus [38])?
A: 4.97 %ID

Q: What about the Drug uptake (Cortex [39]) of the same molecule?
A: 6.65 %ID

Q: What about the Drug uptake (Cortex [40]) of the same molecule?
A: 2.05 %ID

Q: And the Drug uptake (Cortex [41])?
A: 0.22 %ID

Q: And the Drug uptake (Striatum [42])?
A: 6.76 %ID

Q: What about the Drug uptake (Striatum [43]) of the same molecule?
A: 2.11 %ID

Q: And the Drug uptake (Striatum [44])?
A: 0.2 %ID

Q: What about the Drug uptake (Hippocampus [45]) of the same molecule?
A: 7.07 %ID

Q: And the Drug uptake (Hippocampus [46])?
A: 6.64 %ID

Q: What about the Drug uptake (Hippocampus [47]) of the same molecule?
A: 2.52 %ID

Q: What about the Drug uptake (Hippocampus [48]) of the same molecule?
A: 0.27 %ID

Q: What about the Drug uptake (Thalamus [49]) of the same molecule?
A: 6.15 %ID

Q: And the Drug uptake (Thalamus [50])?
A: 0.2 %ID

Q: And the Drug uptake (Cerebellum [51])?
A: 4.71 %ID

Q: And the Drug uptake (Cerebellum [52])?
A: 0.94 %ID

Q: What about the Drug uptake (Medulla [53]) of the same molecule?
A: 6.78 %ID

Q: And the Drug uptake (Medulla [54])?
A: 5.23 %ID

Q: What about the Drug uptake (Medulla [55]) of the same molecule?
A: 1.2 %ID

Q: And the Drug uptake (Medulla [56])?
A: 0.16 %ID
